Laboratory results taken from US7923461B2, “TNF-α production inhibitors” (Santen Pharmaceutical Co., Ltd., priority 2000, dated 2011).
Where a name gives a salt, the structure may show the parent alone.

Test system: TNF-α production
Assay: Inhibitory effects on TNF-α production induced by lipopolysaccharide (LPS) stimulation, in vivo test
Design: species or system rat
Conditions: Rattus norvegicus, 2 h; female rats, oral administration of 3 mg/kg immediately after LPS to footpad; plasma TNF-α (ELISA) two hours after LPS; read-out: Inhibition rate (%) of TNF-α production
Protocol: Inhibitory effects on TNF-α production induced by lipopolysaccharide (LPS) stimulation were studied by in vivo tests according to the method of Tsuji et al. (Inflamm res. 46 (1997) 193-198).
Female rats (five per group), body weight of about 200 g, about eight weeks old, were used as test animals. LPS from Salmonella was dissolved in physiological saline to prepare an LPS solution (1 mg/ml). Each test substance was dissolved or uniformly suspended in a 1% methylcellulose solution to give test substance-preparation liquids.
The above-mentioned LPS solution (0.5 ml/kg) was administered to a footpad of the rat. Immediately after the LPS administration, the test substance-preparation liquid (containing 10 mg/kg or 3 mg/kg test substance) was orally administered. Two hours after the LPS administration, blood was collected from abdominal aorta and was centrifuged at 4° C. and 3000 rpm for ten minutes. TNF-α levels in the obtained plasma were measured with a rat TNF-α-specific ELISA kit. TNF-α was not observed in the plasma with respect to an LPS-non-administered group (control).
Inhibition rates of TNF-α production of the test substances were determined by the following equation. Inhibition rate (%)=[(A−B)/A]×100 A: TNF-α level in plasma of test substance-nonadministered group B: TNF-α level in plasma of test substance-administered group (Results)
`C=CCCCCCCN(CCCCCCC=C)C(=O)NCCCc1ccncc1` [Compound No. 1-95, 1,1-Di(7-octenyl)-3-[3-(4-pyridyl)propyl]urea] showed an inhibition in vivo at 3 mg/kg of 70.8%.
`CCCCCN(CCC12CC3CC(CC(C3)C1)C2)C(=O)NC/C=C\c1ccncc1` [Compound No. 1-111, (Z)-1-[2-(1-Adamantyl)ethyl]-1-pentyl-3-[3-(4-pyridyl)-2-propenyl]urea] showed an inhibition in vivo at 3 mg/kg of 85.1%.
`CCCCCN(CCc1ccccc1)C(=O)CCCCc1ccncc1` [Compound No. 2-9, 5-(4-Pyridyl)valeric acid N-pentyl-N-phenethylamide] gave an inhibition in vivo at 3 mg/kg of 84.5%.
`CCCCCN(CCC12CC3CC(CC(C3)C1)C2)C(=O)CCCCc1ccncc1` [Compound No. 2-14, 5-(4-Pyridyl)valeric acid N-[2-(1-adamantyl)ethyl]-N-pentylamide] showed an inhibition in vivo at 3 mg/kg of 87.3%.
Compound `CCCCCN(CCC12CC3CC(CC(C3)C1)C2)C(=O)CCSCc1ccncc1` [Compound No. 2-15, 3-(4-Pyridylmethylthio)propionic acid N-[2-(1-adamantyl)ethyl]-N-pentylamide] has an inhibition in vivo at 3 mg/kg of 68.1%.
With `CCCCCN(CCC12CC3CC(CC(C3)C1)C2)C(=O)CSCCc1ccncc1` [Compound No. 2-18, 2-[2-(4-Pyridyl)ethylthio]acetic acid N-[2-(1-adamantyl)ethyl]-N-pentylamide] the inhibition in vivo at 3 mg/kg was 87.3%.
Compound `CCCCCN(CCC12CC3CC(CC(C3)C1)C2)C(=O)CCCCCc1ccncc1` [Compound No. 2-20, 6-(4-Pyridyl)caproic acid N-[2-(1-adamantyl)ethyl]-N-pentylamide] has an inhibition in vivo at 3 mg/kg of 82.1%.
`CCCCCN(CCC12CC3CC(CC(C3)C1)C2)C(=O)C(N)CSCc1ccncc1` (stereo not drawn) [Compound No. 3-4, 2-Amino-3-(4-pyridylmethylthio)propionic acid N-[2-(1-adamantyl)ethyl]-N-pentylamide dihydrochloride] gave an inhibition in vivo at 3 mg/kg of 76.1%.
With `CCCCCN(CCC12CC3CC(CC(C3)C1)C2)C(=O)NCCCc1cc[n+](C)cc1` [Compound No. 4-1, 4-[3-[3-[2-(1-Adamantyl)ethyl]-3-pentylureido]propyl]-1-methylpyridinium iodide] the inhibition in vivo at 3 mg/kg was 42.8%.
For `O=C(OCCCc1ccncc1)N(CCC(F)(F)F)CCC12CC3CC(CC(C3)C1)C2` [Compound No. 5-4, 3-(4-Pyridyl)propyl N-[2-(1-adamantyl)ethyl]-N-(3,3,3-trifluoropropyl)carbamate], the inhibition in vivo at 3 mg/kg was 62.6%.
With `CCCCCN(CCC12CC3CC(CC(C3)C1)C2)C(=O)OCC(C)Cc1ccncc1` (stereo not drawn) [Compound No. 5-6, 2-Methyl-3-(4-pyridyl)propyl N-[2-(1-adamantyl)ethyl]-N-pentylcarbamate] the inhibition in vivo at 3 mg/kg was 41.7%.
`CCCCCN(CCC12CC3CC(CC(C3)C1)C2)C(=O)NCCC(O)c1ccncc1` (stereo not drawn) [Compound No. 14-1, 1-[2-(1-Adamantyl)ethyl]-3-[3-hydroxy-3-(4-pyridyl)propyl]-1-pentylurea] gave an inhibition in vivo at 3 mg/kg of 36.3%.
`CCCCCN(CCC12CC3CC(CC(C3)C1)C2)C(=O)NCCCc1cc[n+]([O-])cc1` [Compound No. 16-1, 4-[3-[3-[2-(1-Adamantyl)ethyl]-3-pentylureido]propyl]pyridine N-oxide] gave an inhibition in vivo at 3 mg/kg of 74.3%.
For `CCCCCN(CCC12CC3CC(CC(C3)C1)C2)C(=O)COCCc1ccncc1` [Compound No. 18-3, 2-[2-(4-Pyridyl)ethoxy]acetic acid N-[2-(1-adamantyl)ethyl]-N-pentylamide], the inhibition in vivo at 3 mg/kg was 56.6%.
In the case of `CCCCCN(CCC12CC3CC(CC(C3)C1)C2)C(=O)NCCC(=O)c1ccncc1` [Compound No. 31-1, 1-[2-(1-Adamantyl)ethyl]-3-[3-oxo-3-(4-pyridyl)propyl]-1-pentylurea], the inhibition in vivo at 3 mg/kg was 46.8%.

Same assay, conditions: Rattus norvegicus, 2 h; female rats, oral administration of 10 mg/kg immediately after LPS to footpad; plasma TNF-α (ELISA) two hours after LPS; read-out: Inhibition rate (%) of TNF-α production
With `CC(CNC(=O)N(CCN(C)C(=O)OC(C)(C)C)CCC12CC3CC(CC(C3)C1)C2)Cc1ccncc1` (single isomer, unassigned; (+)) [Compound No. 1-139, (+)-1-[2-(1-Adamantyl)ethyl]-1-[2-[N-(t-butoxycarbonyl)-N-methylamino]ethyl]-3-[2-methyl-3-(4-pyridyl)propyl]urea] the inhibition in vivo at 10 mg/kg was 94.1%.
Compound `COCCN(CCC12CC3CC(CC(C3)C1)C2)C(=O)NCCCc1ccncc1` [Compound No. 1-18, 1-[2-(1-Adamantyl)ethyl]-1-(2-methoxyethyl)-3-[3-(4-pyridyl)propyl]urea] has an inhibition in vivo at 10 mg/kg of 78.9%.
In the case of `CCCCCN(CCC1CCCCC1)C(=O)NCCCc1ccncc1` [Compound No. 1-44, 1-(2-Cyclohexylethyl)-1-pentyl-3-[3-(4-pyridyl)propyl]urea], the inhibition in vivo at 10 mg/kg was 93.7%.
`CCCCCN(CCc1ccccc1)C(=O)NCCCc1ccncc1` [Compound No. 1-45, 1-Pentyl-1-phenethyl-3-[3-(4-pyridyl)propyl]urea] showed an inhibition in vivo at 10 mg/kg of 91.1%.
Work on `CCCCCN(CCc1ccccn1)C(=O)NCCCc1ccncc1` [Compound No. 1-55, 1-Pentyl-1-[2-(2-pyridyl)ethyl]-3-[3-(4-pyridyl)propyl]urea] yielded an inhibition in vivo at 10 mg/kg of 78.1%.
For `CCCN(CCC12CC3CC(CC(C3)C1)C2)C(=O)CCCCc1ccncc1` [Compound No. 2-1, 5-(4-Pyridyl)valeric acid N-[2-(1-adamantyl)ethyl]-N-propylamide], the inhibition in vivo at 10 mg/kg was 91.5%.
Compound `CCCCCN(CC12CC3CC(CC(C3)C1)C2)C(=O)CCCCc1ccncc1` [Compound No. 2-3, 5-(4-Pyridyl)valeric acid N-(1-adamantyl)methyl-N-pentylamide] has an inhibition in vivo at 10 mg/kg of 51.8%.
For `O=C1CCN(CCC23CC4CC(CC(C4)C2)C3)C(=O)N1CCCc1ccncc1` [Compound No. 6-1, 1-[2-(1-Adamantyl)ethyl]-3-[3-(4-pyridyl)propyl]hexahydro-2,4-pyrimidinedione hydrochloride], the inhibition in vivo at 10 mg/kg was 50.5%.
With `CCCCCN(CCC12CC3CC(CC(C3)C1)C2)C(=S)NCCCc1ccncc1` [Compound No. 7-1, 1-[2-(1-Adamantyl)ethyl]-1-pentyl-3-[3-(4-pyridyl)propyl]thiourea] the inhibition in vivo at 10 mg/kg was 71.5%.
Compound `CN(CCCc1ccncc1)C(=O)N(C)CCC12CC3CC(CC(C3)C1)C2` [Compound No. 11-1, [2-(1-Adamantyl)ethyl]-1,3-dimethyl-3-[3-(4-pyridyl)propyl]urea] has an inhibition in vivo at 10 mg/kg of 50.8%.

Same assay, conditions: female rats, oral administration of 3 mg/kg immediately after LPS to footpad; plasma TNF-α (ELISA) two hours after LPS
In the case of `CCCCCN(CCN(C)C(=O)OCc1ccccc1)C(=O)NCCCc1ccncc1` [Compound No. 1-78, [2-(N-Benzyloxycarbonyl-N-methylamino)ethyl]-1-pentyl-3-[3-(4-pyridyl)propyl]urea], the “Inhibition rate (%) of TNF-α production” value was 61.5%.
For `CN(CCN(CCC12CC3CC(CC(C3)C1)C2)C(=O)CCCCc1ccncc1)C(=O)OC(C)(C)C` [Compound No. 2-7, 5-(4-Pyridyl)valeric acid N-[2-(1-adamantyl)ethyl]-N-[2-[N-(tbutoxycarbonyl)-N′-methylamino]ethyl]amide], the “Inhibition rate (%) of TNF-α production” value was 78.7%.
With `CCCCCN(CCC1CCCCC1)C(=O)CCCCc1ccncc1` [Compound No. 2-11, 5-(4-Pyridyl)valeric acid N-(2-cyclohexylethyl)-NY-pentylamide] the “Inhibition rate (%) of TNF-α production” value was 53.5%.
With `CCCN(CCCC12CC3CC(CC(C3)C1)C2)C(=O)OCCCc1ccncc1` [Compound No. 5-3, 3-(4-Pyridyl)propyl N [3-(1-adamantyl)propyl]-N-propylcarbamate] the “Inhibition rate (%) of TNF-α production” value was 49.4%.
With `CN(CCN(CCC12CC3CC(CC(C3)C1)C2)C(=O)OCCCc1ccncc1)C(=O)OC(C)(C)C` [Compound No. 5-5, 3-(4-Pyridyl)propyl N-[2-(1-adamantyl)ethyl]-N-[2-[N′-(tbutoxycarbonyl)-N′-methylamino]ethyl]carbamate] the “Inhibition rate (%) of TNF-α production” value was 42.8%.
For `CN(CCN(CCC12CC3CC(CC(C3)C1)C2)C(=O)CCCCc1ccncc1)C(=O)OCc1ccccc1` [Compound No. 10-16, 5-(4-Pyridyl)valeric acid N-[2-(1-adamantyl)ethyl]-N-[2-(N′-benzyloxycarbonyl-N′-methylamino)ethyl]amide], the “Inhibition rate (%) of TNF-α production” value was 62.8%.
With `CN(CCN(CCC12CC3CC(CC(C3)C1)C2)C(=O)CCCCc1ccncc1)C(=O)CC(C)(C)C` [Compound No. 10-17, 5-(4-Pyridyl)valeric acid N-[2-(1-adamantyl)ethyl]-N-[2-[N′-(3,3-dimethylbutyryl)-N′-methylamino]ethyl]amide] the “Inhibition rate (%) of TNF-α production” value was 53.8%.
In the case of `CCCCCN(CCC12CC3CC(CC(C3)C1)C2)C(=O)CNCCc1ccncc1` [Compound No. 18-1, 2-[2-(4-Pyridyl)ethylamino]acetic acid N-[2-(1-adamantyl)ethyl]1-N-pentylamide], the “Inhibition rate (%) of TNF-α production” value was 55.7%.
With `CCCCCN(CCC12CC3CC(CC(C3)C1)C2)C(=O)NCCCc1ccnc(C)c1` [Compound No. 27-1, 1-[2-(1-Adamantyl)ethyl]-3-[3-[4-(2-methyl)pyridyl]propyl]-1-pentylurea] the “Inhibition rate (%) of TNF-α production” value was 68.6%.

Test system: not given
Assay: not given
Conditions: not given
In the case of `CC(CNC(=O)N(CCN(C)C(=O)OC(C)(C)C)CCC12CC3CC(CC(C3)C1)C2)Cc1ccncc1` (single isomer, unassigned; (+)) [Compound No. 1-139, (+)-1-[2-(1-Adamantyl)ethyl]-1-[2-[N-(t-butoxycarbonyl)-N-methylamino]ethyl]-3-[2-methyl-3-(4-pyridyl)propyl]urea], the melting point was 122.7 to 123.7 °C.
With `COCCN(CCC12CC3CC(CC(C3)C1)C2)C(=O)NCCCc1ccncc1` [Compound No. 1-18, 1-[2-(1-Adamantyl)ethyl]-1-(2-methoxyethyl)-3-[3-(4-pyridyl)propyl]urea] the melting point was 101.5 to 104.5 °C.
